These are literature values, as cited in patent US20210130806A1, “ENGINEERED BACTERIA EXPRESSING RACEMASE FOR TREATING DISEASES ASSOCIATED WITH HYPERAMMONEMIA” (Synlogic Operating Company, Inc., priority 2017, published 2021).

In one series the test system is hepatic encephalopathy. Conditions: compared with placebo, over a 6-month period.
A further series deals with E. coli. Conditions: in vitro and in clinical studies.

Turning to `CO[C@H]1/C=C/O[C@@]2(C)Oc3c(C)c(O)c4c(O)c(c5c(nc6cc(C)ccn65)c4c3C2=O)NC(=O)/C(C)=C\C=C\[C@H](C)[C@H](O)[C@@H](C)[C@@H](O)[C@@H](C)[C@H](OC(C)=O)[C@@H]1C` [Rifaximin], in the series on hepatic encephalopathy, the “risk of an episode of hepatic encephalopathy” value is on record as “significantly reduce”. Besides, the “activity against E. coli” value in the series on E. coli is reported as “active”.
